What was measured:
[1] = test system: TSST-1 production by Staphylococcus aureus MN8; format: cell-based; conditions: 24 hours at 35° C.
S. aureus MN8 = format: cell-based, Staphylococcus aureus; conditions: 24 hours at 35° C.

Substance	TSST-1 [1]	Final [S. aureus] (S. aureus MN8)
Laureth-4	531.8 ng/mL	4.57 × 10^9 CFU/ml
PPG-5 Laureth-5	609.2 ng/mL	3.82 × 10^9 CFU/ml
Steareth-2	680.7 ng/mL	5.76 × 10^9 CFU/ml
